From PubChem BioAssay AID248 (DTP/NCI, 2004)
Several values for one entry are separate records, joined by “and”; a condition that tells them apart may be missing. Equal values may be shown once. Toxic doses and inconclusive results are not listed. Rule as the data show it: active = T/C of 150% or more; inactive = T/C below 125%.

Test system: L1210 leukemia ip in BDF1 mice, survival T/C
Assay: NCI In Vivo Anticancer Drug Screen. Data for tumor model L1210 Leukemia (intraperitoneal) in B6D2F1 (BDF1) mice
Details: higher = longer survival
Outline: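 Survival endpoint. Drug-treated group vs vehicle group, expressed as T divided by C. Tumor passaged by transplantation.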

[1] = endpoint: mean survival time, dose: 50.0 mg/kg/injection, schedule: Q01DX009 (ip), vehicle: saline with Tween-80
[2] = endpoint: mean survival time, dose: 100.0 mg/kg/injection, schedule: Q01DX009 (ip), vehicle: saline with Tween-80
[3] = endpoint: mean survival time, dose: 200.0 mg/kg/injection, schedule: Q01DX009 (ip), vehicle: saline with Tween-80
[4] = endpoint: mean survival time, dose: 100.0 mg/kg/injection, schedule: Q04DX002 (ip), vehicle: saline
[5] = endpoint: mean survival time, dose: 200.0 mg/kg/injection, schedule: Q04DX002 (ip), vehicle: saline
[6] = endpoint: mean survival time, dose: 400.0 mg/kg/injection, schedule: Q04DX002 (ip), vehicle: saline
[7] = endpoint: mean survival time, dose: 100.0 mg/kg/injection, schedule: Q04DX002 (ip), vehicle: saline with Tween-80
[8] = endpoint: mean survival time, dose: 200.0 mg/kg/injection, schedule: Q04DX002 (ip), vehicle: saline with Tween-80
[9] = endpoint: mean survival time, dose: 400.0 mg/kg/injection, schedule: Q04DX002 (ip), vehicle: saline with Tween-80
[10] = endpoint: mean survival time, dose: 100.0 mg/kg/injection, schedule: Q04DX003 (ip), vehicle: saline
[11] = endpoint: mean survival time, dose: 200.0 mg/kg/injection, schedule: Q04DX003 (ip), vehicle: saline
[12] = endpoint: mean survival time, dose: 400.0 mg/kg/injection, schedule: Q01DX009 (ip), vehicle: saline with Tween-80

Measured: T/C

COc1cc(/C=N/NC(=O)CNC(=O)c2ccc(Cl)cc2Cl)ccc1O
inactive: [1] 91 % of control | [2] 86 % of control | [3] 88 % of control

O=C(O)C(Br)CF (stereo unspecified)
inactive: [4] 93 % of control | [5] 97 % of control | [6] 87 % of control

CCc1cccc(CC)c1NC(=O)/C=C/C(=O)O
inactive: [7] 93 % of control | [8] 100 % of control | [9] 96 % of control

CCOC(=O)C(C(C)=O)C(c1ccc([N+](=O)[O-])cc1)C(C(C)=O)C(=O)OCC (stereo unspecified)
inactive: endpoint: mean survival time, dose: 3.12 mg/kg/injection, schedule: Q01DX009 (ip), vehicle: saline 86 % of control | endpoint: mean survival time, dose: 6.25 mg/kg/injection, schedule: Q01DX009 (ip), vehicle: saline 88 % of control | endpoint: mean survival time, dose: 12.5 mg/kg/injection, schedule: Q01DX009 (ip), vehicle: saline 89 % of control | endpoint: mean survival time, dose: 25.0 mg/kg/injection, schedule: Q01DX009 (ip), vehicle: saline 86 % of control

CCC(C)C1NC(=O)C(NC(=O)c2c3nc4c(C(=O)NC5C(=O)NC(C(C)CC)C(=O)N6CCCC6C(=O)N(C)CC(=O)N(C)C(C(C)C)C(=O)OC5C)cc(N)c(C)c4oc-3c(C)c(=O)c2N)C(C)OC(=O)C(C(C)C)N(C)C(=O)CN(C)C(=O)C2CCCN2C1=O (stereo unspecified)
inactive: endpoint: mean survival time, dose: 75.0 micrograms/kg/injection, schedule: Q01DX009 (ip), vehicle: saline + alcohol 119 % of control | endpoint: mean survival time, dose: 100.0 micrograms/kg/injection, schedule: Q01DX009 (ip), vehicle: saline + alcohol 121 % of control | endpoint: mean survival time, dose: 150.0 micrograms/kg/injection, schedule: Q01DX009 (ip), vehicle: saline + alcohol 124 % of control | endpoint: mean survival time, dose: 300.0 micrograms/kg/injection, schedule: Q01DX009 (ip), vehicle: saline + alcohol 105 % of control | endpoint: mean survival time, dose: 300.0 micrograms/kg/injection, schedule: Q04DX003 (ip), vehicle: saline + alcohol 122 % of control | endpoint: mean survival time, dose: 400.0 micrograms/kg/injection, schedule: Q01DX009 (ip), vehicle: saline + alcohol 86 % of control

CCCCN(CCCC)CC(O)c1cc(-c2ccc(C(F)(F)F)cc2)nc2c(Cl)cc(Cl)cc12 (stereo unspecified)
inactive: [7] 100 % of control | [8] 92 % of control | [9] 95 % of control

C=CCc1ccc(OC)c(OC)c1
inactive: [4] 97 % of control | [5] 95 % of control | [6] 104 % of control

CCN(CC)C(=S)S
inactive: endpoint: mean survival time, dose: 50.0 mg/kg/injection, schedule: Q04DX003 (ip), vehicle: saline 101 % of control | endpoint: mean survival time, dose: 100.0 mg/kg/injection, schedule: Q01DX001 (ip), vehicle: carboxymethylcellulose (CMC) 106 % of control | endpoint: mean survival time, dose: 100.0 mg/kg/injection, schedule: Q01DX009 (ip), vehicle: other 107 % of control | [10] 103 % of control | endpoint: mean survival time, dose: 125.0 mg/kg/injection, schedule: Q01DX010 (ip), vehicle: saline 103 % of control and 90 % of control | endpoint: mean survival time, dose: 200.0 mg/kg/injection, schedule: Q01DX001 (ip), vehicle: carboxymethylcellulose (CMC) 96 % of control | endpoint: mean survival time, dose: 200.0 mg/kg/injection, schedule: Q01DX009 (ip), vehicle: other 103 % of control | [11] 106 % of control | endpoint: mean survival time, dose: 250.0 mg/kg/injection, schedule: Q01DX010 (ip), vehicle: saline 97 % of control and 87 % of control | endpoint: mean survival time, dose: 400.0 mg/kg/injection, schedule: Q01DX001 (ip), vehicle: carboxymethylcellulose (CMC) 102 % of control | endpoint: mean survival time, dose: 400.0 mg/kg/injection, schedule: Q01DX009 (ip), vehicle: other 102 % of control | endpoint: mean survival time, dose: 400.0 mg/kg/injection, schedule: Q04DX003 (ip), vehicle: saline 103 % of control | endpoint: mean survival time, dose: 500.0 mg/kg/injection, schedule: Q01DX010 (ip), vehicle: saline 100 % of control and 91 % of control | endpoint: mean survival time, dose: 1000.0 mg/kg/injection, schedule: Q01DX010 (ip), vehicle: saline 114 % of control | endpoint: median survival time, dose: 500.0 mg/kg/injection, schedule: Q01DX001 (ip), vehicle: saline 103 % of control | endpoint: median survival time, dose: 1000.0 mg/kg/injection, schedule: Q01DX001 (ip), vehicle: saline 108 % of control

COc1ccc2c(c1)C1(C)CCN(CCc3ccccc3)C(C2)C1C (stereo unspecified)
inactive: endpoint: mean survival time, dose: 75.0 mg/kg/injection, schedule: Q01DX001 (ip), vehicle: carboxymethylcellulose (CMC) 93 % of control | endpoint: mean survival time, dose: 150.0 mg/kg/injection, schedule: Q01DX001 (ip), vehicle: carboxymethylcellulose (CMC) 94 % of control

CC(C)c1ccc(/C(=N\N=C(N)N)C2CC2)cc1
inactive: endpoint: mean survival time, dose: 15.0 mg/kg/injection, schedule: Q01DX Z (ip), vehicle: carboxymethylcellulose (CMC) 93 % of control | endpoint: mean survival time, dose: 30.0 mg/kg/injection, schedule: Q01DX Z (ip), vehicle: carboxymethylcellulose (CMC) 95 % of control | endpoint: mean survival time, dose: 60.0 mg/kg/injection, schedule: Q01DX Z (ip), vehicle: carboxymethylcellulose (CMC) 92 % of control and 93 % of control | endpoint: mean survival time, dose: 120.0 mg/kg/injection, schedule: Q01DX Z (ip), vehicle: carboxymethylcellulose (CMC) 95 % of control and 96 % of control | endpoint: mean survival time, dose: 120.0 mg/kg/injection, schedule: Q01DX Z (oral), vehicle: carboxymethylcellulose (CMC) 101 % of control | endpoint: mean survival time, dose: 240.0 mg/kg/injection, schedule: Q01DX Z (ip), vehicle: carboxymethylcellulose (CMC) 93 % of control | endpoint: mean survival time, dose: 240.0 mg/kg/injection, schedule: Q01DX Z (oral), vehicle: carboxymethylcellulose (CMC) 110 % of control | endpoint: mean survival time, dose: 480.0 mg/kg/injection, schedule: Q01DX Z (oral), vehicle: carboxymethylcellulose (CMC) 102 % of control | endpoint: mean survival time, dose: 960.0 mg/kg/injection, schedule: Q01DX Z (oral), vehicle: carboxymethylcellulose (CMC) 102 % of control

CC1=NN(P(=O)(c2ccccc2)c2ccccc2)/C(=C\c2ccccc2)O1
inactive: endpoint: mean survival time, dose: 100.0 mg/kg/injection, schedule: Q01DX001 (ip), vehicle: steriod suspending solution 90 % of control | endpoint: mean survival time, dose: 200.0 mg/kg/injection, schedule: Q01DX001 (ip), vehicle: steriod suspending solution 104 % of control | endpoint: mean survival time, dose: 400.0 mg/kg/injection, schedule: Q01DX001 (ip), vehicle: steriod suspending solution 90 % of control

CC(=O)c1cc(O)ccc1O
inactive: endpoint: mean survival time, dose: 25.0 mg/kg/injection, schedule: Q01DX009 (ip), vehicle: saline with Tween-80 96 % of control | [1] 98 % of control | [2] 98 % of control and 86 % of control | [12] 91 % of control

CN1CCC=C(C(=O)N2c3ccccc3CCc3ccccc32)C1
inactive: endpoint: mean survival time, dose: 50.0 mg/kg/injection, schedule: Q01DX009 (ip), vehicle: saline 107 % of control | endpoint: mean survival time, dose: 100.0 mg/kg/injection, schedule: Q01DX009 (ip), vehicle: saline 95 % of control | [10] 103 % of control | [11] 92 % of control

CCc1noc(CC)c1CC1=C2CCC3(C)CCC(C)(C)CC3C2(C)CCC1=O (stereo unspecified)
inactive: endpoint: mean survival time, dose: 100.0 mg/kg/injection, schedule: Q01DX001 (ip), vehicle: other 96 % of control | [2] 93 % of control | endpoint: mean survival time, dose: 200.0 mg/kg/injection, schedule: Q01DX001 (ip), vehicle: other 94 % of control | [3] 91 % of control | endpoint: mean survival time, dose: 400.0 mg/kg/injection, schedule: Q01DX001 (ip), vehicle: other 97 % of control | [12] 90 % of control

O=C(CCCC(=O)N/N=C/c1ccccc1[N+](=O)[O-])N/N=C\c1ccccc1[N+](=O)[O-]
inactive: endpoint: mean survival time, dose: 50.0 mg/kg/injection, schedule: Q01DX001 (ip), vehicle: saline 112 % of control | endpoint: mean survival time, dose: 100.0 mg/kg/injection, schedule: Q01DX001 (ip), vehicle: saline 106 % of control | endpoint: mean survival time, dose: 200.0 mg/kg/injection, schedule: Q01DX001 (ip), vehicle: saline 101 % of control | endpoint: mean survival time, dose: 400.0 mg/kg/injection, schedule: Q01DX001 (ip), vehicle: saline 101 % of control

Cc1cc(C)c(NC(=O)c2ccco2)cc1C
inactive: endpoint: mean survival time, dose: 100.0 mg/kg/injection, schedule: Q01DX009 (ip), vehicle: Klucel (hydroxypropylcellulose) (HPC) 105 % of control | endpoint: mean survival time, dose: 200.0 mg/kg/injection, schedule: Q01DX009 (ip), vehicle: Klucel (hydroxypropylcellulose) (HPC) 92 % of control | endpoint: mean survival time, dose: 400.0 mg/kg/injection, schedule: Q01DX009 (ip), vehicle: Klucel (hydroxypropylcellulose) (HPC) 105 % of control
